Experimental data reported in ChEMBL document CHEMBL3727366, “Heterocyclic compounds for the treatment of stress-related conditions” (2013).
Calls of active or inactive are those of the source. No rule for the calls is given here.

Key:
[1] = target: T1, Prolactin-releasing peptide receptor (Homo sapiens, UniProt P49683); test: Antagonist activity against human GPR10 receptor expressed in HEK293 cells assessed as inhibition of PrRP-induced intracellular calcium mobilization pre-incubated for 15 mins before PrRP addition by Fluo-8 dye based fluorescence imaging plate reader method; format: functional, cell-based
T1 sequence (P49683 whole entry): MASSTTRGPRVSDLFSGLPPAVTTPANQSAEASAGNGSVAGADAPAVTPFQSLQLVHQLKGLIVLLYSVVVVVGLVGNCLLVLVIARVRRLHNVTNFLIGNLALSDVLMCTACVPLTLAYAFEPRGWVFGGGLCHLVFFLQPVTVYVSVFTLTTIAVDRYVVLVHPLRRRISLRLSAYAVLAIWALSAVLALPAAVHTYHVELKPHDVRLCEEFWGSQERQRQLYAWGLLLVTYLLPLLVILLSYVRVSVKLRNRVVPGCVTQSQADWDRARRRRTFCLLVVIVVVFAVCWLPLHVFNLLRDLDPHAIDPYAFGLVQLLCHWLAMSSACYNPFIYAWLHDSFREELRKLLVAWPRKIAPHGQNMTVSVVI

Rattus norvegicus [2] = test: Inhibition of tail-pinch stress-induced feeding behavior in Wistar rat at 5 mL/kg, po dosed 1 or 2 hrs before tail-pinch stimulus; format: functional, organism-based
[3] = target: T1, Prolactin-releasing peptide receptor; test: Displacement of [3H]-PrRP from human GPR10 receptor expressed in HEK293 cell membranes incubated for 90 mins by liquid scintillation counting method
Rattus norvegicus [4] = test: Inhibition of restraint stress-induced defecation in Wistar rat at 5 mL/kg, po dosed 1 or 2 hrs before restraint stress; format: functional, organism-based

Ki [3] [nM] | SMILES | IC50 [1] [nM] | inhibition (Rattus norvegicus [2]) | inhibition (Rattus norvegicus [4])
20 | COn1c(N[C@@H](C)c2ccc(C(F)(F)F)cc2)nc2c(c1=O)CN(C(=O)c1cc(-c3cccs3)n(C)n1)CC2 | – | Active | Active
33 | CC(C)COn1c(N[C@@H](C)c2ccc(C(F)(F)F)cc2)nc2c(c1=O)CN(C(=O)c1ccc(C#N)cc1F)CC2 | – | Active | Active
108 | COn1c(N[C@@H](C)C2CCCCC2)nc2c(c1=O)CN(C(=O)c1ccc(Cl)cc1)CC2 | – | Active | Active
12 | COn1c(N[C@@H](C)c2ccc(C(F)(F)F)cc2)nc2c(c1=O)CN(C(=O)/C=C/c1ccc(Cl)cc1)CC2 | 5790 | Active | Active
24 | COn1c(N[C@H](c2ccc(Cl)cc2)C(C)C)nc2c(c1=O)CN(C(=O)c1ccc3c(c1)CCC(=O)N3C)CC2 | – | Active | Active
26 | COn1c(N[C@H](c2ccc(Cl)cc2)C(C)C)nc2c(c1=O)CN(C(=O)c1cc3ccccc3cn1)CC2 | – | Active | Active
13 | COn1c(N[C@H](c2ccc(Cl)cc2)C(C)C)nc2c(c1=O)CN(C(=O)c1cc3ccccn3n1)CC2 | – | Active | Active
48 | COn1c(N[C@@H](C)c2ccc(C(F)(F)F)cc2)nc2c(c1=O)CN(C(=O)c1ccc(Cl)o1)CC2 | – | Active | Active
9 | COn1c(N[C@@H](C)c2ccc(C(F)(F)F)cc2)nc2c(c1=O)CN(C(=O)c1cc3cccnc3s1)CC2 | – | Active | Active
31 | COn1c(N[C@H](c2ccc(Cl)cc2)C(C)C)nc2c(c1=O)CN(C(=O)c1ccc(-n3ccnc3)cc1)CC2 | – | Active | Active
10 | COn1c(N[C@@H](C)c2ccc(C(F)(F)F)cc2)nc2c(c1=O)CN(C(=O)c1ccc3c(c1)OCCO3)CC2 | – | Active | Active
14 | COc1ccc2oc(C(=O)N3CCc4nc(N[C@@H](C)c5ccc(C(F)(F)F)cc5)n(OC)c(=O)c4C3)cc2c1 | – | Active | Active
6 | COn1c(N[C@@H](C)c2ccc(C(F)(F)F)cc2)nc2c(c1=O)CN(C(=O)COc1ccc(C#N)cc1)CC2 | – | Active | Active
8 | CC[C@H](Nc1nc2c(c(=O)n1OC)CN(C(=O)c1ccc(C#N)cc1F)CC2)c1ccc(C(F)(F)F)cc1 | – | Active | Active
10 | COn1c(N[C@@H](C)c2ccc(C(F)(F)F)cc2)nc2c(c1=O)CN(C(=O)c1cc3occc3n1C)CC2 | – | Active | Active
61 | COn1c(N[C@H](C)C2CCCCC2)nc2c(c1=O)CN(C(=O)c1ccc(C#N)cc1F)CC2 | – | Active | Active
42 | COn1c(N[C@H](c2ccc(Cl)cc2)C(C)C)nc2c(c1=O)CN(C(=O)c1ccc3c(c1)OCCO3)CC2 | – | Active | Active

SMILES | Ki [3] [nM] | IC50 [1] [nM] | inhibition (Rattus norvegicus [2]) | inhibition (Rattus norvegicus [4])
COn1c(N[C@@H](C)c2ccc(C(F)(F)F)cc2)nc2c(c1=O)CN(C(=O)c1ccc(C)s1)CC2 | 10 | 1130 | Active | Active
COn1c(NC(C)c2ccc(Cl)cc2)nc2c(c1=O)CN(C(=O)COc1ccc(Cl)cc1)CC2 (single isomer, unassigned) | 15 | 1180 | Active | Active
COn1c(N[C@@H](C)c2ccc(C(F)(F)F)cc2)nc2c(c1=O)CN(C(=O)c1ccc(C)c(C)c1)CC2 | 4 | 1030 | Active | Active
CCOn1c(N[C@@H](C)c2ccc(C(F)(F)F)cc2)nc2c(c1=O)CN(C(=O)c1ccc(C#N)cc1)CC2 | 11 | 156 | Active | Active
COn1c(N[C@@H](C)c2ccc(C(F)(F)F)cc2)nc2c(c1=O)CN(C(=O)CSc1ccc(Cl)cc1)CC2 | 8 | 1140 | Active | Active
CCOn1c(N[C@@H](C)c2ccc(C(F)(F)F)cc2)nc2c(c1=O)CN(C(=O)c1cc3cccnc3s1)CC2 | 17 | 1680 | Active | Active
C[C@H](Nc1nc2c(c(=O)n1N1CCOCC1)CN(C(=O)c1ccc(C#N)cc1F)CC2)c1ccc(C(F)(F)F)cc1 | 3 | 187 | Active | Active
CCOn1c(N[C@@H](C)c2ccc(C(F)(F)F)cc2)nc2c(c1=O)CN(C(=O)c1ccc(-c3cnco3)cc1)CC2 | 20 | 158 | Active | Active
COn1c(N[C@@H](C)c2ccc(C(F)(F)F)cc2)nc2c(c1=O)CN(C(=O)c1ccc(Cl)s1)CC2 | 15 | 8790 | Active | Active
COc1ccc(C(=O)N2CCc3nc(N[C@@H](C)c4ccc(C(F)(F)F)cc4)n(OC)c(=O)c3C2)c(OC)n1 | 7 | 228 | Active | Active
COn1c(N[C@@H](C)c2ccc(C(F)(F)F)cc2)nc2c(c1=O)CN(C(=O)CCc1ccc(Cl)cc1)CC2 | 134 | 3900 | Active | Active
C[C@H](Nc1nc2c(c(=O)n1N1CCCC1)CN(C(=O)c1ccc(C#N)cc1F)CC2)c1ccc(C(F)(F)F)cc1 | 6 | 298 | Active | Active
CCOn1c(N[C@@H](C)c2ccc(C(F)(F)F)cc2)nc2c(c1=O)CN(C(=O)c1ccc(C#N)cc1F)CC2 | 5 | 227 | Active | Active
CCOn1c(N[C@@H](C)c2ccc(C(F)(F)F)cc2)nc2c(c1=O)CN(C(=O)c1ccc(Cl)cc1)CC2 | 25 | 3710 | Active | Active
C[C@H](Nc1nc2c(c(=O)n1N1CCCC1)CN(C(=O)c1ccc(C#N)cc1)CC2)c1ccc(C(F)(F)F)cc1 | 10 | 648 | Active | Active
COn1c(N[C@@H](C)c2ccc(C(F)(F)F)cc2)nc2c(c1=O)CN(C(=O)COc1ccc(Cl)cc1)CC2 | 8 | 678 | Active | Active
